Assays:
[1] = molecular target: T1, 5-hydroxytryptamine receptor 6 (Homo sapiens, UniProt P50406); assay: Displacement of [3H]-LSD from human full length 5HT6R expressed in HEK293 cells by radioligand binding assay; assay type: cell-based
[2] = molecular target: 5-hydroxytryptamine receptor 2A (Homo sapiens, UniProt P28223); assay: Displacement of [3H]-ketanserin from 5-HT2AR (unknown origin) expressed in CHO-K1 cells by radioligand binding assay; assay type: cell-based
[3] = molecular target: T2, 5-hydroxytryptamine receptor 1A (Homo sapiens, UniProt P08908); assay: Displacement of [3H]-[…] from human full length 5-HT1AR expressed in HEK293 cells by radioligand binding assay; assay type: cell-based
T2 sequence (P08908 whole entry): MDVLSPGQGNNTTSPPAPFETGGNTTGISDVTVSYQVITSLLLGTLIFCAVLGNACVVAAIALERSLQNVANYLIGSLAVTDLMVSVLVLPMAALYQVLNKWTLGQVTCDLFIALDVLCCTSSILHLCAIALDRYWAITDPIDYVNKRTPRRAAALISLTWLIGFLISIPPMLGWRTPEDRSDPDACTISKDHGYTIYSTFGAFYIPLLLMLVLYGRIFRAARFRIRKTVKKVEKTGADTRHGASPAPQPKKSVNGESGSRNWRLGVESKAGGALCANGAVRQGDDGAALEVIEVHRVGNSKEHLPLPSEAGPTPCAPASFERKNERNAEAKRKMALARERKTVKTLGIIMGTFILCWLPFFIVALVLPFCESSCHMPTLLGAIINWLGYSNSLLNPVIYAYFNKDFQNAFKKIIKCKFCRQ

[4] = molecular target: 5-hydroxytryptamine receptor 7 (Homo sapiens, UniProt P34969); assay: Displacement of [3H]-5-CT from human full length 5HT7BR expressed in HEK293 cells by radioligand binding assay; assay type: cell-based
5-hydroxytryptamine receptor 7, sequence (P34969 whole entry): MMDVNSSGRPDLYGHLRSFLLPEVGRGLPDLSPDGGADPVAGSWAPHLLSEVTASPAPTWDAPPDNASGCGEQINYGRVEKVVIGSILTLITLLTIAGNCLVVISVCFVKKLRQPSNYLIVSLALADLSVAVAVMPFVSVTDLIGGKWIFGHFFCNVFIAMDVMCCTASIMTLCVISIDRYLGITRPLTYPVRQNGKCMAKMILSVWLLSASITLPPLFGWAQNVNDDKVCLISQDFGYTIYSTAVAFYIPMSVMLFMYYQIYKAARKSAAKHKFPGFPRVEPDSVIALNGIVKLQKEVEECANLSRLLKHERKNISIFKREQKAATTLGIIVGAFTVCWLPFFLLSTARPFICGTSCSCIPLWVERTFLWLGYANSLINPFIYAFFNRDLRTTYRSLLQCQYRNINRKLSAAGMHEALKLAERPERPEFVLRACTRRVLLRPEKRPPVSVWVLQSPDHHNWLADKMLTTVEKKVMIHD

[5] = molecular target: T3, D(2) dopamine receptor (Homo sapiens, UniProt P14416); assay: Displacement of [3H]-raclopride from human full length D2L receptor expressed in HEK293 cells by radioligand binding assay; assay type: cell-based
T3 sequence (P14416 whole entry): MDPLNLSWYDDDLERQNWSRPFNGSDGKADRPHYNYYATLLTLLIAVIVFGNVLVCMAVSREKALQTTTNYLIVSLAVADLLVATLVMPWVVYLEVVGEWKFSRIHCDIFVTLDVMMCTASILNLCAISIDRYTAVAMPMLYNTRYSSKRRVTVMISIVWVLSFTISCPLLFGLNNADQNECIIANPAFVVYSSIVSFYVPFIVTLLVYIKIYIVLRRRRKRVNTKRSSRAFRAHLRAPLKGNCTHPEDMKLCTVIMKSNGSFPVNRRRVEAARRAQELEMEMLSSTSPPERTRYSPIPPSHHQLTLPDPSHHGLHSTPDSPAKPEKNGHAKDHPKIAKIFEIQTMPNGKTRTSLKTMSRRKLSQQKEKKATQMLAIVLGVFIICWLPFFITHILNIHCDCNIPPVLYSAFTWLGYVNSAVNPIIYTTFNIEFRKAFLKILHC

[6] = species: Homo sapiens; assay: Selectivity ratio of Ki for human full length D2L receptor expressed in HEK293 cells to Ki for human full length 5-HT1AR expressed in HEK293 cells; assay type: cell-based
[7] = molecular target: T2, 5-hydroxytryptamine receptor 1A; assay: Binding affinity to 5-HT1AR (unknown origin) assessed as inhibition constant
[8] = molecular target: T1, 5-hydroxytryptamine receptor 6; assay: Binding affinity to 5-HT6R (unknown origin) assessed as inhibition constant
[9] = molecular target: T3, D(2) dopamine receptor; assay: Binding affinity to D2L receptor (unknown origin) assessed as inhibition constant
[10] = molecular target: T4, 5-hydroxytryptamine receptor 1A (Homo sapiens) (UniProt P08908); assay: Binding affinity to human full length 5-HT1AR expressed in HEK293 cells by Cheng-Prusoff equation analysis; assay type: cell-based; conditions: filed as antagonist
T4 sequence (whole entry): T2 sequence (P08908 whole entry)

[11] = molecular target: CYP3A4 (Homo sapiens, UniProt P08684); assay: Inhibition of CYP3A4 (unknown origin) at 10 uM by luminescence based Glo assay; assay type: ADME; conditions: CYP3A4 enzyme (unknown origin)
CYP3A4, sequence (P08684 whole entry): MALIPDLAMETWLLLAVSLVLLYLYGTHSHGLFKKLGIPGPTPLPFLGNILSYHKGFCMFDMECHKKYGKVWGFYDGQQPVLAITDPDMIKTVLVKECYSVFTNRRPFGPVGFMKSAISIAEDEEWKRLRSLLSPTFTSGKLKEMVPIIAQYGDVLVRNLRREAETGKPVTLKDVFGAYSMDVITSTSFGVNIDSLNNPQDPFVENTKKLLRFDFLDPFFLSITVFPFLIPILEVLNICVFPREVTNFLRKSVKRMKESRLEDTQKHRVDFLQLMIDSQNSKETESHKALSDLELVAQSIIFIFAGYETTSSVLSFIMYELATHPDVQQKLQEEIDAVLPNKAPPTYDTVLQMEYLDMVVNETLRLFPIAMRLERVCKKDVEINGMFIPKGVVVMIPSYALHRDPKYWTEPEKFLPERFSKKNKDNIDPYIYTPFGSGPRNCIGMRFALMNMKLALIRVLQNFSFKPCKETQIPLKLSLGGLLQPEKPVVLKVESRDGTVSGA

[12] = Permeability coefficient of the compound in PBS buffer at pH 7.4 incubated for 5 hrs by PAMPA-based LC-MS analysis; assay type: ADME; conditions: read-out: Kp
[13] = Hepatotoxicity in human HepG2 cells assessed as reduction in cell viability at 50 to 100 uM incubated for 72 hrs by MTS assay; assay type: toxicity, cell-based; conditions: hepg2, 72 h, dose 50-100 µM
[14] = Hepatotoxicity in human HepG2 cells at 1 to 10 uM incubated for 72 hrs by MTS assay; assay type: toxicity, cell-based; conditions: hepg2, 72 h, dose 1-10 µM
[15] = Metabolic stability in mouse liver microsomes assessed as parent compound remaining at 50 uM measured after 120 mins by UPLC-MS analysis; assay type: ADME, Microsome; conditions: read-out: Stability
[16] = molecular target: T2, 5-hydroxytryptamine receptor 1A; assay: Displacement of [3H]-[…] from human 5-HT1AR in human brain tissue by radioligand binding assay; assay type: tissue-based

5-hydroxytryptamine receptor 2A, sequence (P28223 whole entry): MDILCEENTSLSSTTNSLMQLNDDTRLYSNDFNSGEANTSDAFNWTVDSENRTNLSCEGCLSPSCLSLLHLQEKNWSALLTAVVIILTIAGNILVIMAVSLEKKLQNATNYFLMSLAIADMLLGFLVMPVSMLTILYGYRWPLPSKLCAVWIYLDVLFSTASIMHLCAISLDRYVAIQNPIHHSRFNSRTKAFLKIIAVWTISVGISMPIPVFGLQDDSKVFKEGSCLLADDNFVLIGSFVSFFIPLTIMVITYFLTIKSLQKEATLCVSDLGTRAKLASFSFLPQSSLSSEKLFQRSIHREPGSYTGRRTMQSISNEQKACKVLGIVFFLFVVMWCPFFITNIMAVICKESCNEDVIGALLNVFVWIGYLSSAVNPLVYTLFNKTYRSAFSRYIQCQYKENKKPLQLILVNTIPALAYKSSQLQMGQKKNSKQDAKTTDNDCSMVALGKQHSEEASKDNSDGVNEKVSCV
T1 sequence (P50406 whole entry): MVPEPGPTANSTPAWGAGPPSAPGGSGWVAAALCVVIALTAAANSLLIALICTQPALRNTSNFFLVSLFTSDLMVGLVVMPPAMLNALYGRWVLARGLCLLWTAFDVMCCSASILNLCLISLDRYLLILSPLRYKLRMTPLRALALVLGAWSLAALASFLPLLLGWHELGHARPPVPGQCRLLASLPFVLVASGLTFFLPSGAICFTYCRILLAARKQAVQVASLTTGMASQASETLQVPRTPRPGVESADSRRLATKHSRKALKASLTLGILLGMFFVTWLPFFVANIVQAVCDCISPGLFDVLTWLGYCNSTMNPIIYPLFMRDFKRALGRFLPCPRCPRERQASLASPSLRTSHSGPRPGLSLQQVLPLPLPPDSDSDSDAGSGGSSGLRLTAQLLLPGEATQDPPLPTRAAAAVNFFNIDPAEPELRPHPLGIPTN

SMILES	Ki [1] [µM]	Ki [2] [µM]	Ki [3] [µM]	Ki [4] [µM]	Ki [5] [µM]	other results
O=c1n(CCCCCCN2CCN(c3cccc(Cl)c3Cl)CC2)nc2ccccn12	0.299	0.047	0.007	0.243	0.009	–
O=c1n(CC2CCC(CN3CCN(c4cccc(Cl)c4)CC3)CC2)nc2ccccn12 (stereo not given)	4.58	0.493	0.031	0.257	0.559	Ratio Ki [6]: 18
Clc1cccc(N2CCNCC2)c1 [CHLOROPHENYLPIPERAZINE]	–	–	–	–	–	Ki [7]: 0.042 µM; Ki [8]: 1.75 µM; Ki [9]: > 10 µM
O=c1n(CCCCCCN2CCN(c3cccc(Cl)c3)CC2)c2cccc3c2n1CCC3	1.14	0.066	0.074	0.061	0.018	–
O=c1n(CCCCCCN2CCN(c3cccc4cccnc34)CC2)nc2ccccn12	4.14	2.2	0.003	0.655	0.143	Kb [10]: 0.0036 µM
O=S1(=O)N(CCCCCCN2CCN(c3cccc(Cl)c3)CC2)c2cccc3c2N1CCC3	1.69	0.282	0.07	0.162	0.253	–
NC(=O)N1CCN(c2cccc(Cl)c2)CC1	7.49	32.4	7.01	22.8	116	–
O=C(NCCCCCCn1nc2ccccn2c1=O)N1CCN(c2cccc(Cl)c2)CC1	2.55	0.53	0.035	0.462	1.94	inhibition at 10 µM [11]: 75%; Ratio Ki [6]: 55; Papp at 5 h [12]: 29 nm/s; Activity [13]: Toxic; Activity [14]: Non-Toxic; remaining at 2 h, 50 µM [15]: 0%
S=c1n(CCCCCCN2CCN(c3cccc(Cl)c3)CC2)c2cccc3c2n1CCC3	0.582	0.258	0.206	0.171	0.085	–
O=c1n(CCCCCCN2CCN(c3cccc4c3OCCO4)CC2)nc2ccccn12	2.84	0.434	0.001	0.271	0.06	Ratio Ki [6]: 60; Kb [10]: 0.002 µM
O=c1n(Cc2ccc(CN3CCN(c4ccc(Cl)cc4)CC3)cc2)nc2ccccn12	2.14	1.45	0.467	201	1.39	–
O=c1n(CCCCCCN2CCN(c3cccc(C(F)(F)F)c3)CC2)nc2ccccn12	0.404	0.291	0.017	1.07	0.062	–
O=c1n(CCCCCCN2CCN(c3cccc4ccccc34)CC2)nc2ccccn12	0.285	0.223	0.006	0.186	0.032	–
O=c1[nH]c2ccccc2n1CCN1CCN(c2cccc(C(F)(F)F)c2)CC1 [FLIBANSERIN]	–	–	–	–	–	Ki [16]: 0.0118 µM
NC(=O)NCCCCCCN1CCN(c2cccc(Cl)c2)CC1	4.93	0.195	0.039	0.183	0.235	–
NS(=O)(=O)NCCCCCCN1CCN(c2cccc(Cl)c2)CC1	1.53	0.329	0.021	0.167	0.229	–
Cn1c(=O)c2c(ncn2C)n(C)c1=O [CAFFEINE]	–	–	–	–	–	Papp at 5 h [12]: 122 nm/s
O=c1n(Cc2ccc(CN3CCN(c4cccc(Cl)c4)CC3)cc2)nc2ccccn12	1.16	1.07	0.052	3.47	0.148	–

— ChEMBL document CHEMBL5154833, “New N-aryl-N'-aryl-/(thio)ureido-/sulfamoylamino-derivatives of alkyl/alkylcarbamoyl piperazines: Effect of structural modifications on selectivity over 5-HT1A receptor” (Eur J Med Chem, 2022)
